Results on 3 substances are retold here after paper PMC11478212, “Antitumoral and Antiproliferative Potential of Synthetic Derivatives of Scorpion Peptide IsCT1 in an Oral Cavity Squamous Carcinoma Model” (Molecules, 2024).

pIC50: −log10 of the molar value. Like-named read-outs stand apart in the source and are kept apart here. Where no end group is shown, it is not given here.

A short description of data set [1]: Resistance to degradation in 25% fetal bovine serum. The class given is in vitro ADME. As to conditions: 25% fetal bovine serum in water, 37 °C, HPLC peak area vs t = 0 h, triplicate; for remaining at 0.5 h: read-out: peptide remaining intact after 30 min; for remaining at 6 h: read-out: peptide remaining intact after 6 h. Here is the method: Figure 1 (a) Helical wheel projections of the IsCT1, AFPK-IsCT1, KKK-IsCT1, and IsCT-P peptides were generated using the Heliquest server (https://heliquest.ipmc.cnrs.fr/, accessed on 15 July 2024). In these projections, yellow, gray, and green circles represent hydrophobic amino acids, while blue and pink circles denote hydrophilic amino acids. (b) Resistance to degradation assays for all peptides were performed over 6 h in a solution containing 25% fetal bovine serum (FBS). These experiments were conducted in triplicate and aliquots were collected for analysis at 0, 0.5, 1, 2, 4, and 6 h of incubation. The aliquots were subsequently analyzed using high-performance liquid chromatography (HPLC) after each incubation period. The degradation kinetics of the peptides were determined by comparing the integrated peak area associated with the peptide at the start of the experiment (t = 0 h) with the integrated peak area at subsequent time points (t = 0.5, 1, 2, 4, 6 h). (c) The hemolytic activity of synthetic peptides analogous to IsCT1 was assessed on human erythrocytes within a concentration range of 0.13–128 μmol L^−1 in phosphate-buffered saline (PBS) (n = 3). A 1% solution of sodium dodecyl sulfate (SDS) in PBS served as a positive control, while PBS alone was used as a negative control. (d) A table summarizing the sequences, molecular weights, and physicochemical properties of the IsCT1, AFPK-IsCT1, and KKK-IsCT1 peptides. […]
Stability assays were conducted using GIBCO (Waltham, MA, USA) fetal bovine serum diluted to 25% in water, as described by Torres et al.. Briefly, peptide solutions were added to the serum solution and maintained at 37 °C. The experiments were carried out in triplicate and samples were taken at 0, 0.5, 1, 2, 4, and 6 h post incubation. The degradation kinetics were monitored using liquid chromatography and the percentage of remaining peptides was calculated by integrating the peak area of the peptide.

Another data set deals with FN1 cells. Kind of data set: MTT cell viability. The data set is classed as cell-based. As to conditions: FN1 normal human fibroblasts, treatment 24 and 48 h (time of IC50 not given), absorbance 540 nm, N/IC50 = no IC50 for the tested concentrations, no toxicity. Here is the method: (§1) Cell survival was assessed using an MTT assay. Tumor (SSC-9 and SSC-25) and normal cells (FN1 and J-774) were incubated in 96-well plates at a density of 10^5 cells/mL for 24 h. Subsequently, treatments were administered as described in Table 1 for 24 and 48 h. After the treatment period, the supernatant was aspirated and 100 μL of MTT at a concentration of 5 mg/mL (Calbiochem—Darmstadt, Germany) was added to the plate and incubated for 3 h at 37 °C with 5% CO2. Afterward, the content was removed and 200 μL of methanol was added to dissolve the formazan crystals. Absorbance was then measured at a wavelength of 540 nm using a microplate reader. The hemolysis assay was performed as previously reported.

For another data set, the system named is J774 cells. Kind of data set: MTT cell viability. As to conditions: J774 normal macrophages, treatment 24 and 48 h (time of IC50 not given), absorbance 540 nm, N/IC50 = no IC50 for the tested concentrations, no toxicity. The class given is cell-based. As to the method: as §1
Another data set relates to SCC-25 cells. Briefly: MTT cell viability. As to conditions: treatment 24 and 48 h (time of IC50 not given), absorbance 540 nm, N/IC50 = no IC50 for the tested concentrations, no toxicity. The data set is classed as cell-based. Here is the method:
as §1

The subject of another data set is SCC-9 cells. Kind of data set: MTT cell viability. The data set is classed as cell-based. As to conditions: treatment 24 and 48 h (time of IC50 not given), absorbance 540 nm, N/IC50 = no IC50 for the tested concentrations, no toxicity. As to the method:
as §1

For data set [2], the system named is SCC-25 tumor cells. Briefly: Cell cycle phase and DNA fragmentation analysis (flow cytometry). As to conditions: 24 h, IsCT-P and AC-AFPK-IsCT1 at IC50, others 100 µM. The class given is cell-based. Here is the method:
(§2) Figure 3 Analysis of cell cycle phases following a 24 h treatment with synthetic analogs of IsCT1 peptides. The indicated cells were treated at the IC50 values obtained for the IsCT-P and AC-AFPK-IsCT1 peptides and at a concentration of 100 µM for the other peptides. (a) Representative histograms of cell distribution across cell cycle phases; (b) bar graph showing the correlation of the effect on cell cycle and fragmented DNA, expressed as the mean ± SD of three independent SCC-9 tumor cell experiments; (c) bar graph showing the correlation of the effect on cell cycle and fragmented DNA, expressed as the mean ± SD of three independent experiments on SCC-25 tumor cells; (d) bar graph showing the correlation of the effect on cell cycle and fragmented DNA, expressed as the mean ± SD of three independent experiments of normal FN1 cells; (e) bar graph showing the correlation of the effect on cell cycle and fragmented DNA, expressed as the mean ± SD of three independent experiments of normal J774 cells. Statistical differences were obtained using ANOVA and Tukey–Kramer multiple comparison tests. * p < 0.05, ** p < 0.01, and *** p < 0.001 denote significance. ns = not significant.
(§3) Tumor (SSC-9 and SSC-25) and normal cells (FN1 and J-774) were subjected to treatment for 24 h at the peptides’ IC50 concentrations. Treated and control cells were trypsinized and centrifuged at 1200 rpm for 5 min. The resulting pellet was resuspended in 1 mL of cold buffer, followed by the addition of 3 mL of absolute ethanol. Samples were stored at −20 °C for 24 h. The samples were then centrifuged at 1500 rpm for 10 min and resuspended in 200 μL of FACS buffer containing 0.1% Triton X-100 (Sigma-Aldrich, St. Louis, MO, USA), 50 μg/mL propidium iodide (Sigma-Aldrich), and 1 µL of RNAse (200×). This mixture was kept at room temperature and protected from light for 30 min. The samples were then transferred to cytometry tubes and analyzed using a FACScanto flow cytometer (BD) with 10,000 events, and histograms were acquired and analyzed using ModFit LT 5.0 software.
For orientation: A flow cytometer gives signals particle by particle.

The next data set concerns SCC-9 tumor cells. Described as above. The class given is cell-based. As to conditions: 24 h, 100 µM, compared to the control. As to the method: as §2, §3
The subject of data set [3] is SCC-25 tumor cells. Kind of data set: Mitochondrial membrane electrical potential (ΔΨm) by flow cytometry. The class given is cell-based. As to conditions: 24 h, IsCT-P and AC-AFPK-IsCT1 at IC50, others 100 µM, MitoRed, mean ± SD of three independent experiments. As to the method: Figure 4 Analysis of mitochondrial electrical potential (ΔΨm) using flow cytometry following a 24 h treatment with synthetic analogs of IsCT1 peptides. The indicated cells were treated at the IC50 values obtained for the IsCT-P and AC-AFPK-IsCT1 peptides and at a concentration of 100 µM for the other peptides. (a) Representative histograms of cell distribution according to ΔΨm; (b) bar graph showing ΔΨm expressed as the mean ± SD of three independent experiments of SCC-9 tumor cells; (c) bar graph showing ΔΨm expressed as the mean ± SD of three independent experiments of SCC-25 tumor cells; (d) bar graph showing ΔΨm expressed as the mean ± SD of three independent experiments of normal FN1 cells; (e) bar graph showing ΔΨm expressed as the mean ± SD of three independent experiments of normal J774 cells. Statistical differences were obtained using ANOVA and Tukey–Kramer multiple comparison tests. * p < 0.05, ** p < 0.01, and *** p < 0.001 denote significance. ns = not significant.
Tumor (SSC-9 and SSC-25) and normal cells (FN1 and J-774) were subjected to treatment for a period of 24 h at the peptides’ IC50 concentrations. After treatment, the cells were trypsinized, centrifuged at 1200 rpm for 5 min, the supernatant was discarded, and the cells were resuspended in complete medium containing MitoRed™ (Sigma-Aldrich, USA) (200 nM/L). Subsequently, the samples were incubated in an incubator at 37 °C with 5% CO2 for 30 min. The tubes were then centrifuged, the supernatant was discarded, and the pellet was resuspended in 200 μL of FACS buffer. Readings were performed using a FACScanto flow cytometer (BD) with 10,000 events, and histograms were acquired and analyzed using FCS Express software 2.0.

The term pIC50 denotes −log10 of the IC50, conventionally taken in molar units. In turn, Ac-ILKKIWKGKKSLF-NH2 [AC-KKK-IsCT1] gave a metabolised at 0.5 h in data set [1] (30 min) of 50%. In addition, in data set [1], the “time to complete degradation” value is not above 4 h. For the same substance, the pIC50 in the data set with FN1 cells (read-out: IC50) was 4.00. Besides, the IC50 result with J774 cells, with SCC-25 cells and in the data set on SCC-9 cells was “N/IC50” in each case. Further, the “fragmented DNA” value in the data set on SCC-25 tumor cells [2] turned out to be 12.4%.

The term amount remaining denotes the share of the starting amount still present when the sample was taken. Take H-ILKKIWKGKKSLF-NH2 [KKK-IsCT1]: the amount remaining at 0.5 h in data set [1] (30 min) is 50%. Further, the share remaining at 6 h in data set [1] was found to be 8%. The IC50 result in the data set on FN1 cells, in the data set with J774 cells, with SCC-25 cells and in the data set on SCC-9 cells was “N/IC50” each time. The “fragmented DNA” value in the data set with SCC-25 tumor cells [2] is reported as 19%.

ALGKFWPKIKSLF-NH2 [AFPK-IsCT1]: the amount remaining at 0.5 h in data set [1] (30 min) is 50%. Moreover, the amount remaining at 6 h in data set [1] came to 8%. In addition, the IC50 result in the data set with FN1 cells, with J774 cells, with SCC-25 cells and with SCC-9 cells was “N/IC50” in each case. Besides, in the data set on SCC-25 tumor cells [2], the “fragmented DNA” value is reported as “No significant DNA fragmentation”. Moreover, in the data set with SCC-9 tumor cells, the “increase in fragmented DNA” value was found to be 13.6%. Also, in the data set on SCC-25 tumor cells [3], the “decrease in ΔΨm” value was 40.5 ± 0.4%.
